The values below come from patent publication US20080254080A1, “Novel Uses of Calcium Hydroxide” (priority 2004, published 2008).

The subject of one assay is H5N1 virus. The settings on record: cited from earlier work.
In assay [1] the test system is warts, toe and foot fungus, skin tags. In words: Topical use of hydrated lime. As to conditions: in vivo.
For assay [2], the system named is different bacterial strains including Bacillus subtilis. The settings on record: agar diffusion; hydrated spores; cited from earlier work. On the technique in general: A growth-free zone around the sample is the usual read-out of agar diffusion tests.

Structures are written as SMILES.

On to `CC(N)C12CC3CC(CC(C3)C1)C2` (stereo not shown) [rimantadine], for which the “susceptibility of H5N1 virus currently infecting birds in Asia” value with H5N1 virus was “resistant”.
For `NC12CC3CC(CC(C3)C1)C2` [amantadine], the “susceptibility of H5N1 virus currently infecting birds in Asia” value in the assay on H5N1 virus is recorded as “resistant”.
For the molecule `[Ca+2].[OH-].[OH-]` [calcium hydroxide], the “removal of warts, toe and foot fungus, skin tags” value in assay [1] is “shown to remove warts, toe and foot fungus, skin tags”. Also, the “antimicrobial activity compared with the other antimicrobial agents (MTA, Portland cement, Sealapex, Dycal)” value in assay [2] is reported as “superior”.
